Here are results for eight compounds from patent US11196057B2, “Metal-air cell with performance enhancing additive” (ARIZONA BOARD OF REGENTS ACTING FOR AND ON BEHALF OF …, priority 2010, dated 2021).

The structures appear in SMILES notation. Like-named read-outs stand apart in the source and are kept apart here.

The conditions of data set [1]: aqueous system; cited from earlier work.
Data set [2] in a line: pKa values of different proton sources (protic additives). To be noted: for pKa: water; for pKa (H20): in water.
The nature of data set [3]: Properties of host ionic liquid BDMeIm Tf (gravimetric, Cottrell). The data set is classed as physicochemical. As to the method:
A series of protic additives were added into an ionically conductive medium in order to examine the effects of such additives upon oxygen reduction reaction (“ORR”). An aprotic ionic liquid BdMelm:Tf was used as the host for the additive. A photograph of an experimental setup is provided in FIG. 5A, with FIG. 5B showing a cartoon of a close-up of the measurement tube/chamber. […] See e.g., FIG. 5F. Also, the IL had the benefit of the superacidity of Tf, which minimizes solvent leveling effects. Additional benefits of this dry aprotic IL system include also invariant electrode, high reversibility, and high reactivity, as shown in cyclic voltammagrams (CV) in FIG. 5C and the result of the Kouteeky-Levich ([…]) analysis with respect to the number of electrons per O2 vs. potential in FIG. 5D.

The term pKa denotes the pH at which an ionisable group is half protonated.

For `OO` [peroxide], in data set [1], the pKa was 11.63. `CCCCN=C(N(C)C)N(C)C` [2-butyl-1,1,3,3-tetramethylguanidinium triflate] registered a pKa in data set [2] of 13.6. In the case of `[O]O` [superoxide], the pKa result in data set [1] was “about 4.7”. The compound `OCC(F)(F)F` [2,2,2-trifluoroethanol] yielded a pKa in data set [2] of 12.5. For the compound `Cc1nccn1C.O=S(=O)(O)C(F)(F)F` [1,2-dimethylimidaozlium triflate], in data set [2], the “pKa (H20)” value is reported as 7.4. Take `CCCCn1cc[n+](C)c1C.O=S(=O)([O-])C(F)(F)F` [BDMelm Tf]: the density result in data set [3] is recorded as “about 1.4 g/mL”. The oxygen solubility entry in data set [3] (measured gravimetrically and through Cottrell) is given as “about 2.5 mM”. Consider `CCN(C)CC.O=S(=O)(O)C(F)(F)F` [n,n-diethyl-n-methylammonium triflate], for which, in data set [2], the “pKa (H20)” value is reported as 10.6. Turning to `O.O=S(=O)(O)C(F)(F)F` [hydronium triflate], the “pKa (H20)” value in data set [2] is listed as −1.7.
